Measured values taken from PMC8214221, “Sequence determinants in the cathelicidin LL-37 that promote inflammation via presentation of RNA to scavenger receptors” (The Journal of Biological Chemistry, 2021).
Residues, ends and D or L forms follow the SMILES beside them.

How the values were obtained:
[1] = target: T1, scavenger receptor SRB1 (Homo sapiens, UniProt Q8WTV0); test: Proximity ligation assay (PLA) on NHEKs; type: cell-based; conditions: peptide 2 μM 15 min, then biotinylated U1 dsRNA 2 μg/ml 60 min at 4 °C, spatial correlation <40 nm, n = 3
T1 construct: host or cells: NHEK (normal human epidermal keratinocytes)
T1 sequence (Q8WTV0 1-552): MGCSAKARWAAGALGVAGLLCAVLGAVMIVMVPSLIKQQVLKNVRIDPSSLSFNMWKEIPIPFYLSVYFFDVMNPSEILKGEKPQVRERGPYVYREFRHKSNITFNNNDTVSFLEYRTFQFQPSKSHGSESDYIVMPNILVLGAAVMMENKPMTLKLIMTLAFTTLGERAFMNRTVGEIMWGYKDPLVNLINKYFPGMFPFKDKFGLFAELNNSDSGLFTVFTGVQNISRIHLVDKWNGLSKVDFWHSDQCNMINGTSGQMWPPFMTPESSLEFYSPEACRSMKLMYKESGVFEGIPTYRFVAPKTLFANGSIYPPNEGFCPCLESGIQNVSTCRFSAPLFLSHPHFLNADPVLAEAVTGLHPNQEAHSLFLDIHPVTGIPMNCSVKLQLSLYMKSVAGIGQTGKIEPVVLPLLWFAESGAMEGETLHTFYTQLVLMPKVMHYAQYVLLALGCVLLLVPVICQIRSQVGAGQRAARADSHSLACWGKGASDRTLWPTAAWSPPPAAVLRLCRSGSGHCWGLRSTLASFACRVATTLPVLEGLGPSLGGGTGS
Experimental: Figure 4 LL-34 enables U1 dsRNA association with scavenger receptor (SR) SRB1.A and B, NHEKs with gene knockdown for SRs SCARB1, SCARB1, SCARA3, CD36, LRP1, CD163L1, CXCL16, MSR1, MARCO, and OLR1 were cotreated with U1 dsRNA (2.5 μg/ml) and LL-34 (2 μM) for 18 h. Gene expression of IFNB1 and CXCL10 was assessed with quantitative RT-PCR (n = 3). C, proximity ligation assay (PLA) for U1 dsRNA and SR SRB1 binding. NHEKs were treated with LL-34-parent, LL-34-I24A, and LL-34-L31A (2 μM) for 15 min, followed by treatment with biotinylated U1 dsRNA (2 μg/ml) for 60 min at 4 °C. The physical proximity of LL-34 and SRB1 (C), and U1 dsRNA, and SRB1 (D) was determined with fluorescence-based PLA that produces a red fluorescent signal. DAPI (blue) was used as a nuclear counterstain. The scale bar represents 50 μm. Signal counts of C and D from five visual fields were used for PLA signal quantification, as shown in E and F (n = 3). (∗p < 0.05; ∗∗p < 0.01; ∗∗∗p < 0.001; ∗∗∗∗p < 0.0001). […]
The binding of peptide to SRB1 or U1 to SRB1 was assessed by proximity ligation assay (PLA) (Fig. 4, C–E).
PLA was performed as described previously ([30]). […] PLA signals were captured on Olympus BX41 microscope (widefield) with 40× objective and counted by Duolink ImageTool software, version 1.0 (Sigma–Aldrich). Five fields were captured per treatment for quantification of PLA signals with ImageTool software. […]

[2] = system: U1 dsRNA binding on the surface of NHEKs; test: Surface binding of Alexa 488-labeled U1 dsRNA to NHEKs; type: cell-based, human; conditions: Alexa 488 U1 0.05-10 μg/ml + peptide 2.5 μM, 10 min on ice; fluorometer RFU, n = 3
Experimental: We also assayed the dynamics of binding of U1 dsRNA on the surface of NHEKs in the presence of LL-34 mutant peptides. NHEKs were exposed to fluorescent Alexa 488–labeled U1 at increasing concentrations (0.05–10 μg/ml) and LL-34 parent peptide, LL-34 I24A, LL-34 L31A, LL-34 K25A, and LL-34 proline at isoleucine position 20 (I20P) for 10 min on ice to allow for surface binding of U1 to cells in the presence of peptides (Fig. 5A).
Figure 5 Biophysical properties of binding of U1 dsRNA to LL-34 peptides and SRB1 protein.A, NHEKs were treated with Alexa 488–labeled U1 dsRNA or a combination of Alexa 488–labeled U1 dsRNA (0.05–10 μg/ml) and LL-34 peptides LL-34 parent, LL-34 I24A, LL-34 K25A, LL-34 L31A, and LL-34 I20P at 2.5 μM as shown. The cells were prechilled on ice for 15 min before the addition of U1 dsRNA and/or LL-34 peptides, and the surface binding of U1 dsRNA was allowed for 10 min. The amount of U1 dsRNA binding to NHEKs was assessed with a fluorometer, and data are represented as relative fluorescence units (RFUs) (n = 3). B, NHEKs were similarly treated with Alexa-labeled U1 dsRNA (1.5 μg/ml) and/or unlabeled U1 dsRNA (15 μg/ml) with the addition of LL-34 parent peptide at 2.5 μM. The experiment was performed on ice for 10 min, and the relative binding of Alexa 488 U1 dsRNA was assessed on a fluorometer and is shown as RFU (n = 3) (∗p < 0.05) one-way ANOVA. C, SAXS spectra of LL-34 peptides LL-34 parent, LL-34 F5A, LL-34 I24A, and LL-34 L31A incubated with U1 dsRNA. The peptide-U1 dsRNA (P/R) ratio is varied at 1 and 2 for all conditions. The U1 dsRNA interhelical spacing (Q) was calculated by the peak position. The domain size (L) was calculated by the full width at half maximum of the first peak. LL-34, 34-amino acid peptide; NHEKs, normal human epidermal keratinocytes; SAXS, small-angle X-ray scattering.

Compound | Localization of peptide with SRB1 (PLA) [1] | Binding of Alexa 488-labeled U1 dsRNA on the NHEK cell surface [2]
CC[C@H](C)[C@H](NC(=O)[C@H](CCCCN)NC(=O)[C@H](CCC(=O)O)NC(=O)[C@H](CCCCN)NC(=O)[C@H](CO)NC(=O)[C@H](CCCCN)NC(=O)[C@H](CCCNC(=N)N)NC(=O)[C@H](Cc1ccccc1)NC(=O)[C@H](Cc1ccccc1)NC(=O)[C@H](CC(=O)O)NC(=O)CNC(=O)[C@H](CC(C)C)NC(=O)[C@@H](N)CC(C)C)C(=O)NCC(=O)N[C@@H](CCCCN)C(=O)N[C@@H](CCC(=O)O)C(=O)N[C@@H](Cc1ccccc1)C(=O)N[C@@H](CCCCN)C(=O)N[C@@H](CCCNC(=N)N)C(=O)N[C@H](C(=O)N[C@H](C(=O)N[C@@H](CCC(N)=O)C(=O)N[C@@H](CCCNC(=N)N)C(=O)N[C@@H](C)C(=O)N[C@@H](CCCCN)C(=O)N[C@@H](CC(=O)O)C(=O)N[C@@H](Cc1ccccc1)C(=O)N[C@@H](CC(C)C)C(=O)N[C@@H](CCCNC(=N)N)C(=O)N[C@@H](CC(N)=O)C(=O)N[C@@H](CC(C)C)C(=O)N[C@H](C(=O)N1CCC[C@H]1C(=O)N[C@@H](CCCNC(=N)N)C(=O)O)C(C)C)C(C)C)[C@@H](C)CC [LL-34—I24A] (H-LLGDFFRKSKEKIGKEFKRIVQRAKDFLRNLVPR-OH) | did not achieve close localization | nonsaturable binding
CC[C@H](C)[C@H](NC(=O)[C@H](CCCCN)NC(=O)[C@H](CCC(=O)O)NC(=O)[C@H](CCCCN)NC(=O)[C@H](CO)NC(=O)[C@H](CCCCN)NC(=O)[C@H](CCCNC(=N)N)NC(=O)[C@H](Cc1ccccc1)NC(=O)[C@H](Cc1ccccc1)NC(=O)[C@H](CC(=O)O)NC(=O)CNC(=O)[C@H](CC(C)C)NC(=O)[C@@H](N)CC(C)C)C(=O)NCC(=O)N[C@@H](CCCCN)C(=O)N[C@@H](CCC(=O)O)C(=O)N[C@@H](Cc1ccccc1)C(=O)N[C@@H](CCCCN)C(=O)N[C@@H](CCCNC(=N)N)C(=O)N[C@H](C(=O)N[C@H](C(=O)N[C@@H](CCC(N)=O)C(=O)N[C@@H](CCCNC(=N)N)C(=O)N[C@H](C(=O)N[C@@H](CCCCN)C(=O)N[C@@H](CC(=O)O)C(=O)N[C@@H](Cc1ccccc1)C(=O)N[C@@H](CC(C)C)C(=O)N[C@@H](CCCNC(=N)N)C(=O)N[C@@H](CC(N)=O)C(=O)N[C@@H](C)C(=O)N[C@H](C(=O)N1CCC[C@H]1C(=O)N[C@@H](CCCNC(=N)N)C(=O)O)C(C)C)[C@@H](C)CC)C(C)C)[C@@H](C)CC [LL-34—L31A] (H-LLGDFFRKSKEKIGKEFKRIVQRIKDFLRNAVPR-OH) | did not achieve close localization | nonsaturable binding
